# Paper PMC12263422, “Cryo-EM structure of the human THIK-1 K2P K^+ channel reveals a lower Y gate regulated by lipids and anesthetics” (Nature Structural & Molecular Biology, 2025)
# Several values for one entry are separate records, joined by “and”; a condition that tells them apart may be missing. Equal values may be shown once. Read-outs that look alike come from different tables or passages of the source.
# Biological target: T1, Human K2P13.1 THIK-1 (WT) (Homo sapiens, UniProt Q9HB14)
# T1 construct: expressed in transfected cells; host or cells: Xenopus oocytes (mRNA injection)
# T1 sequence (Q9HB14 1-408): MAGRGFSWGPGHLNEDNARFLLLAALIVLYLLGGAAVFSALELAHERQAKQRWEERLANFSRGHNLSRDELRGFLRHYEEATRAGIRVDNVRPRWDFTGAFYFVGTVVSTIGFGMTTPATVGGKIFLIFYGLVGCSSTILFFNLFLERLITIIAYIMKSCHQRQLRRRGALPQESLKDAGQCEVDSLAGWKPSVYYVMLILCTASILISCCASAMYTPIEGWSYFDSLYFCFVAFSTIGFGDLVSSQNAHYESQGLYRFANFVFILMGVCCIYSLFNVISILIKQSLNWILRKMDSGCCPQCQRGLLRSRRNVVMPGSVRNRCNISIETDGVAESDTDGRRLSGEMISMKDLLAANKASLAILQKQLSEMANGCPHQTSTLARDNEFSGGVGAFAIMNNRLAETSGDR
# Test: Macroscopic inside-out excised patch recordings from Xenopus oocytes expressing WT THIK-1; compounds applied to the intracellular side
# Assay type: cell-based
# Description: Human K2P13.1 THIK-1 (GenBank accession number: NM_022054) and human K2P12.1 THIK-2 (NM_022055.1) were used in this study. For functional expression studies, the respective K^+ channel subtype coding sequences were subcloned into the oocyte expression vector pSGEM or the dual-purpose expression vector pFAW[41] and verified by sequencing. All mutant channels were obtained by site-directed mutagenesis and verified by sequencing. To increase surface expression and macroscopic currents, measurements of THIK-2 channels used a mutated ER retention motif, (R11A R12A R14A R15A R16A; THIK-2*)[20]. Vector DNA was linearized with NheI or MluI, and mRNA was synthesized in vitro using the SP6 or T7 AmpliCap Max High Yield Message Maker Kit (Cellscript, USA) or HiScribe T7 ARCA mRNA Kit (New England Biolabs).
# Two-electrode voltage–clamp (TEVC) studies were performed in Xenopus oocytes. All animal use conformed to the Guide for the Care and Use of Laboratory Animals (NIH Publication 85–23), and all experiments using Xenopus toads were approved by the local ethics panels. Oocytes were stored at 17 °C in ND96 recording solution composed of (in mM): 96 NaCl, 2 KCl, 1.8 CaCl2, 1 MgCl2, 5 HEPES (pH 7.5 adjusted with NaOH and HCl), supplemented with Na-pyruvate (275 mg L^–1), theophylline (90 mg L^–1) and gentamicin (50 mg L^–1). Oocytes were injected with 1 ng mRNA for WT or mutant channels, and were incubated for 24–48 h at 17 °C. Two-electrode voltage clamp recordings were then performed as previously described[42],[43]. For macroscopic patch–clamp measurements, oocytes were obtained as described above incubated at 17 °C in a solution containing (mM): 54 NaCl, 30 KCl, 2.4 NaHCO3, 0.82 MgSO4 ×7 H2O, 0.41 CaCl2, 0.33 Ca(NO3)2 ×4 H2O and 7.5 TRIS (pH 7.4 adjusted with NaOH and HCl) for 1–4 days before use. Excised patch recordings in inside-out configuration conditions were performed at room temperature. Patch pipettes were made from thick-walled borosilicate glass GB 200TF-8P (Science Products), had resistances of 0.2–0.5 MΩ (tip diameter, 10–25 µm) and filled with a pipette solution (in mM): 120 KCl, 10 HEPES and 3.6 CaCl2 (pH 7.4 adjusted with KOH and HCl). Intracellular bath solutions and compounds were applied to the cytoplasmic side of excised patches for the various K^+ channels through a gravity flow multi-barrel pipette system. The intracellular solution had the following composition (in mM): 120 KCl, 10 HEPES, 2 EGTA and 1 pyrophosphate (pH adjusted with KOH and HCl). Currents were recorded with an EPC10 amplifier (HEKA Electronics) and sampled at 10 kHz or higher, with filtering set to 3 kHz (–3 dB) or higher, as appropriate for sampling rate. For measurements of GPCR activation, whole-cell currents were recorded for THIK-1 in transiently transfected HEK-293 cells. Cells were stimulated by a ramp protocol between −100 and +60 mV (holding potential, −80 mV). The pipette solution was composed of (in mM): 140 KCl, 2 MgCl2, 1 CaCl2, 2.5 EGTA and 10 HEPES (pH 7.3 adjusted with KOH and HCl). The extracellular bath solution had the following composition (in mM): 135 NaCl, 5 KCl, 2 MgCl2, 2 CaCl2, 10 glucose and 10 HEPES pH (pH 7.3 adjusted with NaOH and HCl). Oxotremorine M (Oxo-M) was added to extracellular bath solution to obtain the final concentration. Single-channel currents were recorded with an Axopatch 200B amplifier through a Digidata 1440A digitizer (Molecular Devices). Data were filtered at 2 kHz and recorded at a 200-kHz sampling rate with the program Clampex (Molecular Devices). Pipette solution and bath solution for cell-attached recordings contained (in mM): 140 KCl, 2 MgCl2, 1 CaCl2 and 10 HEPES (pH 7.4 adjusted with KOH and HCl). For inside-out recordings, the bath solution contained (in mM): 140 KCl, 2 MgCl2, 1 CaCl2 and 10 HEPES (pH 7.2 adjusted with KOH and HCl). All experiments were conducted at room temperature. […]
# [1] = WT (unstimulated), individual recordings
# [2] = WT, PIP2, individual recordings
# [3] = WT, oleoyl-CoA, individual recordings
compound,measurement,setting,value
"FCOC(C(F)(F)F)C(F)(F)F [Sevoflurane, sevoflurane]",Inhibition (%),"0.24 mM Sevoflurane, WT, individual recordings",52.54% and 40.05% and 49.45% and 28.56% and 58.12% and 60.68% and 50.30%
same,inhibition at 240 µM,"0.24 mM Sevoflurane, WT, mean",48.5%
same,inhibition at 23 µM,"THIK-1 WT, 0.023 mM sevoflurane",14.1%
same,inhibition at 47 µM,"THIK-1 WT, 0.047 mM sevoflurane",21.7%
same,inhibition at 468 µM,"THIK-1 WT, 0.468 mM sevoflurane",57.5%
same,inhibition at 2340 µM,"THIK-1 WT, 2.34 mM sevoflurane",79.5%
CCCCC/C=C\C/C=C\CCCCCCCC(=O)O [linoleic acid],Fold activation,"THIK-1 WT (unstimulated), 1 µM linoleic acid",0.98
same,Fold activation,"THIK-1 WT (unstimulated), 10 µM linoleic acid",1.75
same,Fold activation,"THIK-1 WT (unstimulated), 30 µM linoleic acid",2.77
same,Fold activation,"THIK-1 WT (unstimulated), 50 µM linoleic acid",3.38
same,Fold activation,"THIK-1 WT (unstimulated), 100 µM linoleic acid",3.62
same,Fold activation,"THIK-1 WT (unstimulated), 150 µM linoleic acid",4.27
same,Fold activation,"THIK-1 WT (unstimulated), 200 µM linoleic acid",4.21
same,Fold activation with 30.0 µM linoleic acid,"THIK-1 WT, individual recordings",3.150 and 3.640 and 4.490 and 2.650 and 2.000 and 1.880 and 1.350 and 1.220 and 3.650 and 3.260 and 3.220
same,Fold activation with 30.0 µM linoleic acid,"THIK-1 WT, mean",2.77
same,EC50,"THIK-1 WT, mean, read-out: Linoleic acid EC50",28.5 µM
same,EC50,"applied intracellularly to excised patches, WT, read-out: half-maximal effective concentration (activation)",29 ± 5 µM
"CCCCC[N+](CCCCC)(CCCCC)CCCCC [TPenA, tetrapentylammonium]",block of initial currents,"0.5 mM TPenA, WT",~ 80%
same,Normalized currents,"THIK-1 WT (unstimulated), 0.01 µM TPenA",1.00
same,Normalized currents,"THIK-1 WT (unstimulated), 0.1 µM TPenA",0.97
same,Normalized currents,"THIK-1 WT (unstimulated), 1 µM TPenA",0.94
same,Normalized currents,"THIK-1 WT (unstimulated), 10 µM TPenA",0.88
same,Normalized currents,"THIK-1 WT (unstimulated), 15.6 µM TPenA",0.89
same,Normalized currents,"THIK-1 WT (unstimulated), 62.5 µM TPenA",0.75
same,Normalized currents,"THIK-1 WT (unstimulated), 100 µM TPenA",0.71
same,Normalized currents,"THIK-1 WT (unstimulated), 250 µM TPenA",0.49
same,Normalized currents,"THIK-1 WT (unstimulated), 1000 µM TPenA",0.21
same,Normalized currents,"THIK-1 WT (unstimulated), 4000 µM TPenA",0.09
same,Normalized currents,"THIK-1 WT (unstimulated), 5000 µM TPenA",0.09
same,Normalized currents,"TPenA 0.01 µM, THIK-1 WT (oleoyl-CoA, 5 µM)",1
same,Normalized currents,"TPenA 0.01 µM, THIK-1 WT (unstimulated)",1.00
same,Normalized currents,"TPenA 0.1 µM, THIK-1 WT (PIP2)",1
same,Normalized currents,"TPenA 0.1 µM, THIK-1 WT (oleoyl-CoA, 5 µM)",0.87
same,Normalized currents,"TPenA 0.1 µM, THIK-1 WT (unstimulated)",0.97
same,Normalized currents,"TPenA 1 µM, THIK-1 WT (PIP2)",0.86
same,Normalized currents,"TPenA 1 µM, THIK-1 WT (oleoyl-CoA, 5 µM)",0.81
same,Normalized currents,"TPenA 1 µM, THIK-1 WT (unstimulated)",0.94
same,Normalized currents,"TPenA 4 µM, THIK-1 WT (PIP2)",0.54
same,Normalized currents,"TPenA 4 µM, THIK-1 WT (oleoyl-CoA, 5 µM)",0.48
same,Normalized currents,"TPenA 10 µM, THIK-1 WT (unstimulated)",0.88
same,Normalized currents,"TPenA 15.6 µM, THIK-1 WT (PIP2)",0.26
same,Normalized currents,"TPenA 15.6 µM, THIK-1 WT (oleoyl-CoA, 5 µM)",0.22
same,Normalized currents,"TPenA 15.6 µM, THIK-1 WT (unstimulated)",0.89
same,Normalized currents,"TPenA 62.5 µM, THIK-1 WT (PIP2)",0.1
same,Normalized currents,"TPenA 62.5 µM, THIK-1 WT (oleoyl-CoA, 5 µM)",0.09
same,Normalized currents,"TPenA 62.5 µM, THIK-1 WT (unstimulated)",0.75
same,Normalized currents,"TPenA 100 µM, THIK-1 WT (unstimulated)",0.71
same,Normalized currents,"TPenA 250 µM, THIK-1 WT (PIP2)",0.03
same,Normalized currents,"TPenA 250 µM, THIK-1 WT (oleoyl-CoA, 5 µM)",0.04
same,Normalized currents,"TPenA 250 µM, THIK-1 WT (unstimulated)",0.49
same,Normalized currents,"TPenA 1000 µM, THIK-1 WT (PIP2)",0.02
same,Normalized currents,"TPenA 1000 µM, THIK-1 WT (oleoyl-CoA, 5 µM)",0.02
same,Normalized currents,"TPenA 1000 µM, THIK-1 WT (unstimulated)",0.21
same,Normalized currents,"TPenA 4000 µM, THIK-1 WT (PIP2)",0.01
same,Normalized currents,"TPenA 4000 µM, THIK-1 WT (oleoyl-CoA, 5 µM)",0.02
same,Normalized currents,"TPenA 4000 µM, THIK-1 WT (unstimulated)",0.09
same,Normalized currents,"TPenA 5000 µM, THIK-1 WT (unstimulated)",0.09
same,IC50,"TPenA IC50, THIK-1 WT, individual recordings",228 µM and 219 µM and 204 µM (2×) and 231 µM and 268 µM and 259 µM and 120 µM and 223 µM and 194 µM and 240 µM and 308 µM
same,IC50,"TPenA IC50, THIK-1 WT, mean",225 µM
same,IC50,"TPenA IC50, intracellular application to excised patches, WT unstimulated",225 ± 13 µM
same,τ of 1 mM TPenA block,[1],14.000 s and 10.890 s and 8.250 s and 24.220 s and 9.660 s and 10.730 s and 11.070 s and 13.110 s and 12.070 s and 8.080 s and 8.510 s
same,τ of 1 mM TPenA release,[1],76.730 s and 96.620 s and 52.570 s and 76.880 s and 103.780 s and 38.820 s and 101.050 s and 68.790 s and 74.350 s and 174.000 s and 73.800 s
same,τ of 1 mM TPenA block,"WT (unstimulated), mean",11.87 s
same,τ of 1 mM TPenA release,"WT (unstimulated), mean",85.22 s
same,τblock (kinetics of TPenA block),WT unstimulated,12 ± 1 s
same,τrelease (kinetics of TPenA release),WT unstimulated,85 ± 11 s
same,τ of 1 mM TPenA block,[2],0.324 s and 0.375 s and 0.323 s and 0.215 s and 0.293 s
same,τ of 1 mM TPenA release,[2],29.360 s and 29.550 s and 28.630 s and 28.550 s and 38.470 s and 25.420 s
same,τblock,"WT, PIP2 activated",0.31 ± 0.02 s
same,τrelease,"WT, PIP2 activated",30 ± 2 s
same,τ of 1 mM TPenA block,"WT, PIP2 activated, mean",0.31 s
same,τ of 1 mM TPenA release,"WT, PIP2 activated, mean",30.00 s
same,τblock,"WT, oleoyl-CoA activated",0.5 ± 0.1 s
same,τrelease,"WT, oleoyl-CoA activated",11 ± 1 s
same,τ of 1 mM TPenA block,"WT, oleoyl-CoA activated, mean",0.53 s
same,τ of 1 mM TPenA release,"WT, oleoyl-CoA activated, mean",10.85 s
same,τ of 1 mM TPenA block,[3],0.330 s and 0.560 s and 0.270 s and 0.340 s and 0.440 s and 0.930 s and 0.380 s and 0.720 s and 0.750 s and 0.360 s
same,τ of 1 mM TPenA release,[3],7.190 s and 6.440 s and 12.640 s and 12.180 s and 15.140 s and 8.860 s and 13.480 s
same,inhibition at 15.6 µM,"read-out: inhibition with 15.6 µM TPenA, WT channel in PIP2",74 ± 1%
same,inhibition at 15.6 µM,"read-out: inhibition with 15.6 µM TPenA, WT channel in oleoyl-CoA",78 ± 1%
same,inhibition at 15.6 µM,"read-out: inhibition with 15.6 µM TPenA, WT channel, unstimulated",11 ± 1%
